{"source": "patent US20220064214A1", "about": "“NOVEL PEPTIDES AND USES THEREOF” (CENNA BIOSCIENCES INC., priority 2019, published 2022)", "key": {"[1]": {"experiment": "Metabolic stability of peptides in fresh human plasma (LC/MS/MS)", "assay_type": "in vitro ADME", "settings": "for rate at which metabolized in fresh human plasma (in words): compared among P8, 8M1 and 8M1D; for % Remaining / remaining at 3 h, 1 µM / remaining at 8 h, 1 µM / remaining at 24 h, 1 µM: fresh human plasma; for % Remaining: 0 h incubation; for remaining at 3 h, 1 µM: 3 h incubation; for remaining at 8 h, 1 µM: 8 h incubation; for remaining at 24 h, 1 µM: 24 h incubation", "method": "P8, 8M1, and 8M1D were generated according to Example 1 with purities ranging from 98.0% to 99.0%. A primary 1.00 mM stock solution was prepared in either acetonitrile or acetonitrile:water (1:1, v/v) for each peptide. A 0.200 mM working stock was made from the primary stock in acetonitrile:water (1:1, v/v), which was used for the reactions. The primary and working stock solutions were stored at −20° C. when not in use, and they were kept at room temperature for as short a time as possible when in use. Fresh human plasma were maintained by adding sodium heparin as an anticoagulant.\nThe incubation procedures started when 5.00 μL of 0.2 mM (working stock solutions) of different peptides were added to 0.995 mL of fresh human plasma in a 1.7-mL snap tube. After 3, 8 and 24 hours of incubation, duplicate 50.0 μL aliquots of plasma were removed and placed into extraction tubes containing 150 μL of methanol, which served to quench any reactions, and thus incubations were ended. For each time point, the aliquotes were immediately extracted by vortex mixing and centrifugation. Resulting supernates were stored in High-Performance Liquid Chromatography (HPLC) vials and analyzed by LC/MS/MS after all samples were extracted. Valacyclovir was used as a positive control.\nLC/MS/MS analysis of the incubation solutions was conducted by initial separation of the test article peaks using chromatography prior to detection by the mass spectrometer. The LC/MS system was comprised of a HPLC coupled with a TQS-Micro or Quattro Premier (Waters, Milford, Mass.). The mobile phase was nebulized using heated nitrogen in a Z spray source/interface set to electrospray in positive ionization mode for the peptides. The ionized peptides were detected using Tandem Quadropole Mass Spectrometry (MS/MS). The data was acquired using MassLynx (Waters, Milford, Mass.).\nHPLC for the peptides and Valacyclovir control were performed with no guard columns, with a flow rate at 0.3 mL/min, with column temperature at 40° C., and autosampler temperature at 10° C. The column for peptides was MacMod ACE 2 Excel C18PFP, 100×2.1-mm, 2.0 μm, and the column for the control was Waters Atlantis T3, 150×2.1-mm, 5.0 μm. The injection loop and volumn for peptides were 50.0 μL and 20.0 μL respectively, and the ones for controls were 20.0 μL and 2.00 μL. For the Mass Spectrometer for the peptides and the Valacyclovir control, the source temperature was set to be 150° C., desolvation temperature was set to be 350° C., and polarity was set to be positive mode of electrospray ionization. Other parameters in HPLC and Mass Spectrometer are shown in Table 2.1, Table 2.2 and Table 3 below."}, "[2]": {"tested_on": "Aβ40", "experiment": "Efficacy in reducing Aβ40 in rat plasma (ELISA)", "assay_type": "in vivo", "settings": "10 mg/kg SC; for reduction in Aβ40: rat plasma; for Percent Decrease in Aβ 40 in Rat Plasma: mean of 3 rats, negative = decrease", "method": "(§1) Blood was collected through jugular vein cannulas, and the samples were collected into tubes with K2EDTA. After centrifuging at a temperature of 2 to 8° C. at 4,000×g for 5 minutes, the resulting plasma was split into equal aliquots, frozen, and stored at −60 to −80° C. One aliquot was for PK analysis and the other was for Aβ analysis (see Example 4).\nRats (n=3 per peptide) were administered with P8, 8M1D, or 8M2D (10 mg/kg) subcutaneously, and plasma were collected at 0, 6, 12, and 24 h after dosing and Aβ40 analysis was carried out by ELISA (Invitrogen)."}, "[3]": {"experiment": "Pharmacokinetics study in rats, plasma", "assay_type": "in vivo", "settings": "rat; for plasma concentration: individual rats", "method": "(§2) An in-vivo study was carried out in rats to determine the pharmacokinetics (PK) of peptides P8, 8M1D and 8M2D in plasma and CSF. Each peptide was assessed through two dosage routes, intravenous (IV) and subcutaneous (SC). Three rats were assigned to each dose group with each peptide. Total of twelve rats per peptide were used.\nas §1"}, "[4]": {"experiment": "Pharmacokinetics study in rats, CSF", "assay_type": "in vivo", "set-up": "CSF concentration, Mean IV / CSF concentration, Mean SC: unit not given here", "settings": "rat; for CSF concentration, Mean IV: 10 mg/kg IV; for CSF concentration, Mean SC: 10 mg/kg SC", "method": "as §2\nCSF collection was performed by first anesthetizing animals at specified time points (see Table 5) with a mixture of 80 mg/kg ketamine and 8 mg/kg xylazine. The depth of anesthesia was monitored by toe pinches. CSF was collected via the cisterna magna (˜0.05 mL), and it was split into equal aliquots, frozen, and stored at −60 to −80° C."}, "[5]": {"tested_on": "γ-secretase", "settings": "phase III clinical trial, cited from earlier work"}, "[6]": {"settings": "10 mg/kg IV and SC, at Cmax and most subsequent time points"}}, "note": "Values joined by “and” are separate entries in the source; they are usually repeats but may differ in a detail not shown here. Identical values can stand only once. Marks after values point to notes of the source that are not given here. Square brackets hold non-standard residues; d marks the D form. Peptide text beside a SMILES is read from it.", "data": [{"molecule": "H-DEEEDEEL-NH2 [8M1, DEEEDEEL-NH2]", "values": [{"measurement": "rate at which metabolized in fresh human plasma (in words)", "setting": "[1]", "result": "fastest"}, {"measurement": "% Remaining", "setting": "[1]", "result": 100, "unit": "%"}, {"measurement": "remaining at 3 h, 1 µM", "setting": "[1]", "result": 87.1, "unit": "%"}, {"measurement": "remaining at 8 h, 1 µM", "setting": "[1]", "result": 65.1, "unit": "%"}, {"measurement": "remaining at 24 h, 1 µM", "setting": "[1]", "result": 47.1, "unit": "%"}]}, {"molecule": "CC(C)C[C@H](NC(=O)[C@H](CCC(=O)O)NC(=O)[C@H](CCC(=O)O)NC(=O)[C@H](CC(=O)O)NC(=O)[C@H](CCC(=O)O)NC(=O)[C@H](CCC(=O)O)NC(=O)[C@H](CCC(=O)O)NC(=O)[C@H](N)CC(=O)O)C(N)=O", "note": "[8M1D, dEEEDEEL-NH2] (H-[dD]EEEDEEL-NH2)", "values": [{"measurement": "stability in fresh human plasma (in words)", "setting": "[1]", "result": "relatively stable"}, {"measurement": "rate at which metabolized in fresh human plasma (in words)", "setting": "[1]", "result": "slowest"}, {"measurement": "% Remaining", "setting": "[1]", "result": 100, "unit": "%"}, {"measurement": "remaining at 3 h, 1 µM", "setting": "[1]", "result": 115, "unit": "%"}, {"measurement": "remaining at 8 h, 1 µM", "setting": "[1]", "result": 100, "unit": "%"}, {"measurement": "remaining at 24 h, 1 µM", "setting": "[1]", "result": 89.6, "unit": "%"}, {"measurement": "reduction in Aβ40", "setting": "[2]; 12 hr post dosing", "result": "about 27%"}, {"measurement": "reduction in Aβ40", "setting": "[2]; 24 h post dosing", "result": "about 19%"}, {"measurement": "Percent Decrease in Aβ 40 in Rat Plasma", "setting": "[2]; 0 h", "result": 0.00, "unit": "%"}, {"measurement": "Percent Decrease in Aβ 40 in Rat Plasma", "setting": "[2]; 6 h", "result": "−23.61", "unit": "%"}, {"measurement": "Percent Decrease in Aβ 40 in Rat Plasma", "setting": "[2]; 12 h", "result": "−27.34", "unit": "%"}, {"measurement": "Percent Decrease in Aβ 40 in Rat Plasma", "setting": "[2]; 24 h", "result": "−19.13", "unit": "%"}, {"measurement": "exposure in plasma compared with P8 (in words)", "setting": "[3]; [6]", "result": "better exposures than P8"}, {"measurement": "plasma concentration", "setting": "[3]; 10 mg/kg IV, 0 hr (pre-dose)", "result": "BQL"}, {"measurement": "plasma concentration", "setting": "[3]; 10 mg/kg IV, 0.167 hr, 10 mg/kg, in ng/mL (unit assumed)", "result": "25,600 and 23,000 and 20,200"}, {"measurement": "plasma concentration", "setting": "[3]; 10 mg/kg IV, 0.5 hr, 10 mg/kg, in ng/mL (unit assumed)", "result": "7,140 and 8,630 and 6,650"}, {"measurement": "plasma concentration", "setting": "[3]; 10 mg/kg IV, 1 hr, 10 mg/kg, in ng/mL (unit assumed)", "result": "1,680 and 2,160 and 1,580"}, {"measurement": "plasma concentration", "setting": "[3]; 10 mg/kg IV, 2 hr, 10 mg/kg, in ng/mL (unit assumed)", "result": "215 and 360 and 290"}, {"measurement": "plasma concentration", "setting": "[3]; 10 mg/kg IV, 4 hr, 10 mg/kg, in ng/mL (unit assumed)", "result": "25.6 and 16.0 and 17.0"}, {"measurement": "plasma concentration", "setting": "[3]; 10 mg/kg IV, 6 hr, 10 mg/kg", "result": "2.93 ^b and 0.805 ^b and 1.48 ^b"}, {"measurement": "plasma concentration", "setting": "[3]; 10 mg/kg IV, 8 hr", "result": "BQL"}, {"measurement": "plasma concentration", "setting": "[3]; 10 mg/kg IV, 12 hr", "result": "BQL"}, {"measurement": "plasma concentration", "setting": "[3]; 10 mg/kg IV, 24 hr", "result": "BQL"}, {"measurement": "plasma concentration", "setting": "[3]; 10 mg/kg SC, 0 hr (pre-dose)", "result": "BQL"}, {"measurement": "plasma concentration", "setting": "[3]; 10 mg/kg SC, 0.167 hr, 10 mg/kg", "result": "20,500 ^a and 19,100 and 25,900"}, {"measurement": "plasma concentration", "setting": "[3]; 10 mg/kg SC, 0.5 hr, 10 mg/kg", "result": "12,300 ^a and 10,900 and 11,800"}, {"measurement": "plasma concentration", "setting": "[3]; 10 mg/kg SC, 1 hr, 10 mg/kg, in ng/mL (unit assumed)", "result": "5,440 and 4,310 and 3,410"}, {"measurement": "plasma concentration", "setting": "[3]; 10 mg/kg SC, 2 hr, 10 mg/kg, in ng/mL (unit assumed)", "result": "1,330 and 1,570 and 642"}, {"measurement": "plasma concentration", "setting": "[3]; 10 mg/kg SC, 4 hr, 10 mg/kg, in ng/mL (unit assumed)", "result": "49.8 and 75.3 and 43.9"}, {"measurement": "plasma concentration", "setting": "[3]; 10 mg/kg SC, 6 hr, 10 mg/kg", "result": "11.4 and 8.83 ^b and 4.66 ^b"}, {"measurement": "plasma concentration", "setting": "[3]; 10 mg/kg SC, 8 hr, 10 mg/kg", "result": "1.29 ^b and BQL (2×)"}, {"measurement": "plasma concentration", "setting": "[3]; 10 mg/kg SC, 12 hr", "result": "BQL"}, {"measurement": "plasma concentration", "setting": "[3]; 10 mg/kg SC, 24 hr", "result": "BQL"}, {"measurement": "time after dosing at which detectable in CSF", "setting": "[4]; 10 mg/kg IV and SC", "result": "≥ 8", "unit": "h"}, {"measurement": "exposure in CSF compared with P8 (in words)", "setting": "[4]; [6]", "result": "better exposures than P8"}, {"measurement": "CSF concentration, Mean IV", "setting": "[4]; 0 hr", "result": 0}, {"measurement": "CSF concentration, Mean IV", "setting": "[4]; 0.5 hr", "result": 67.8}, {"measurement": "CSF concentration, Mean IV", "setting": "[4]; 1 hr", "result": 80.8}, {"measurement": "CSF concentration, Mean IV", "setting": "[4]; 2 hr", "result": 65}, {"measurement": "CSF concentration, Mean IV", "setting": "[4]; 4 hr", "result": 23.4}, {"measurement": "CSF concentration, Mean IV", "setting": "[4]; 8 hr", "result": 0.913}, {"measurement": "CSF concentration, Mean IV", "setting": "[4]; 12 hr", "result": 0}, {"measurement": "CSF concentration, Mean IV", "setting": "[4]; 24 hr", "result": 0.261}, {"measurement": "CSF concentration, Mean SC", "setting": "[4]; 0 hr", "result": 0}, {"measurement": "CSF concentration, Mean SC", "setting": "[4]; 0.5 hr", "result": 50.9}, {"measurement": "CSF concentration, Mean SC", "setting": "[4]; 1 hr", "result": 66.1}, {"measurement": "CSF concentration, Mean SC", "setting": "[4]; 2 hr", "result": 62.9}, {"measurement": "CSF concentration, Mean SC", "setting": "[4]; 4 hr", "result": 18.9}, {"measurement": "CSF concentration, Mean SC", "setting": "[4]; 8 hr", "result": 3.85}, {"measurement": "CSF concentration, Mean SC", "setting": "[4]; 12 hr", "result": 0}, {"measurement": "CSF concentration, Mean SC", "setting": "[4]; 24 hr", "result": 0}]}, {"molecule": "CC(C)[C@H](O)C(=O)N[C@@H](C)C(=O)N[C@@H]1C(=O)N(C)CCc2ccccc21", "note": "[semagacestat]", "values": [{"measurement": "functional ability (in words)", "setting": "[5]; patients receiving the higher dose", "result": "significant worsening of functional ability"}, {"measurement": "effect on improving cognitive functions (in words)", "setting": "[5]; patients", "result": "no effects on improving cognitive functions"}, {"measurement": "adverse events (in words)", "setting": "[5]", "result": "more adverse events including skin cancers and infections"}]}]}
